Data on nine molecules can be found in US4707484A, “Substituted piperidinomethylindolone and cyclopent(b)indolone derivatives” (Hoffmann-La Roche Inc., priority 1986, dated 1987).

Usually ED50 stands for the midpoint of the dose-response relation. In general, IC50 refers to the concentration that inhibits the measured activity by half.

In one data set the test system is apomorphine emesis. Put plainly: Anti-apomorphine emesis in dogs. It counts as in vivo, dog (female Beagle). The note with it: Canis lupus familiaris, po; orally, 1 hour before apomorphine HCl 0.1 mg/kg s.c.; 1 hour observation; read-out: anti-emetic ED50 (apomorphine emesis). On the procedure:
Pure-bred female Beagle dogs (Fa. WIGA, Versuchstier-Zuchtanstalt, 8741 Sulzfeld, GFR) with an approximate body weight of 15 kg were used. All dogs were shown previously to vomit at least four times during the 60 minutes following injection of 0.1 mg/kg apomorphine .HCl s.c. into the neck. Each dog was used in 14 day intervals. Three drug sessions were followed by an apomorphine control session.
The compound of formula If was administered suspended in 5% acacia at different dose levels by oral gavage to at least 4 dogs per dose. One hour later 0.1 mg/kg apomorphine .HCl was injected s.c. and the dogs observed for a further hour for vomiting.

Data set [1] deals with apomorphine-induced rearing. Put plainly: Antagonism of apomorphine-induced rearing in mice. The note with it: for ED50: Mus musculus; for Antagonism of Apomorphine Rearing % protected at 10 mg/kg: intravenous 10 mg/kg.
Data set [2] deals with D-amphetamine hyperactivity (central nervous system dopamine receptors). Put plainly: Antagonism of D-amphetamine hyperactivity in mice. The note with it: Mus musculus, read-out: Antagonism of Amphetamine Hyperactivity ED50.
A further data set deals with cisplatin-induced emesis. Briefly: Anti-cisplatin emesis in dogs. Format: in vivo, dog (Beagle). The note with it: for effectiveness against apomorphine and cisplatin emesis (in words): dogs. The procedure: The procedure was as follows:
In the evaluation 6 male and 6 female Beagle dogs, supplied by White Eagle Laboratories, Doylestown PA., were used. Three dogs were tested daily. Each dog received either saline-placebo, 30 ml i.v.; the compound of formula If, 10 mg/kg i.v.; or domperidone 10 mg/kg i.v. The compound of formula If was dissolved in warm sterile water for injection. Domperidone was solubilized in acetic acid and the pH was adjusted with 2N NaOH. Both drugs were diluted to an infusion volume of 30 mL with sterile water. The treatments were infused over a 30-minute (n=3) or a 60-minute (n=9) period. […] The cisplatin, 1 mg/ml dissolved in sterile water, was infused over a 10 minute period. Each treatment was given to 2 male and 2 female weight-matched dogs.
The dogs were fed Wayne dog food moistened in water, 20 grams/kg, one hour prior to treatment. During the observation period the onset, frequency and severity of vomiting episodes as well as any atypical behavioral activity was recorded.
Statistical evaluation of emetic activity was done using Student's-t test for unpaired data.

In the next data set the target is T1, dopamine receptors (Rattus norvegicus, UniProt P61169).
T1 construct: rat striatal brain homogenates; from tissue; host or cells: rat striatum (brain homogenate)
Briefly: 3H-spiroperidol binding test (rat striatal brain homogenates). The note with it: 0.2 nM 3H-spiroperidol, 20 min, read-out: Binding IC50 (inhibition of 3H-spiroperidol binding to dopamine receptors). The procedure: Dopamine receptor antagonism by compounds of formula I in vitro is determined by the ^3 H-spiroperidol binding assay. In this test, rat striatal brain homogenates were incubated for 20 minutes in the presence of 0.2 nanomolar ^3 H-spiroperidol and varying concentrations of test compounds. The incubations were terminated by rapid filtrations through Whatman GF/B filters, followed by 2×5 mL washes with ice-cold assay buffer (50 mM tribase-HCl pH 7.7 which contains fixed concentrations of 0.1% ascorbic acid, 120 mM NaCl, 5 mM KCl, 2 mM CaCl2, and 1 mM MgCl2).

Data set [3] is described as follows: Side effect evaluation in dogs. The note with it: oral 1 mg/kg, then one day later 10 mg/kg; observed six hours. It counts as in vivo, dog (beagle). On the procedure:
For side effect liability evaluation, pure breed beagle dogs from Marshall Inc., North Rose, N.Y., were used. Prior to dosing, the dogs were fasted for approximately 18 hrs. Dosing was orally by gelatin capsule. […] Compound of formula Ia was initially administered orally at a dose of 1 mg/kg and then one day later at an oral dose of 10 mg/kg. An experienced observer monitored these dogs for six hours, following dosing.

[4] abbreviates: po, 2 h, read-out: Antagonism of Apomorphine rearing ED50.
[5] abbreviates: 10 mg/kg i.v., cisplatin 3 mg/kg i.v.

Counter-ions that a name gives are not always drawn. Like-named read-outs stand apart in the source and are kept apart here.

T1 sequence (P61169 whole entry): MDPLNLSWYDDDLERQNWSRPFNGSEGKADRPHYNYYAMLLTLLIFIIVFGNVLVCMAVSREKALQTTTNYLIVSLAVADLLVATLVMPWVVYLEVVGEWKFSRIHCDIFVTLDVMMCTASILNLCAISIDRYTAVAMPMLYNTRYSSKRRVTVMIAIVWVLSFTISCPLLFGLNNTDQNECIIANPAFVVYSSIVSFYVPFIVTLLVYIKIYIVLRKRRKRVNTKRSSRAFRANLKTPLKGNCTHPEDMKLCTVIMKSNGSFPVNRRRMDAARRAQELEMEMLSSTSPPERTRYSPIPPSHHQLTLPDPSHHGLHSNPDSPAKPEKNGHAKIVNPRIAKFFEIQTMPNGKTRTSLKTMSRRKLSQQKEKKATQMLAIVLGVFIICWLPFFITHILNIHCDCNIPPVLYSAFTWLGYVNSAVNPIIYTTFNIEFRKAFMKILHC

In the case of `O=c1[nH]c2ccccc2n1CCCN1CCC(n2c(=O)[nH]c3cc(Cl)ccc32)CC1` [domperidone], the ED50 with apomorphine emesis turned out to be 0.2 mg/kg; in data set [1] (setting [4]) it was 23 mg/kg; in data set [2] (po, 1 h), 194 mg/kg. In the data set on cisplatin-induced emesis (setting [5]), the “emesis versus controls (in words)” value is listed as “did not differ significantly from controls”. Besides, in the data set on cisplatin-induced emesis (setting [5]), the “Vomiting episodes Mean (± S.E.) 6 Hrs” value amounted to 12.5 ± 2.3. Besides, the “Vomiting episodes Mean (± S.E.) 1 hr.” value with cisplatin-induced emesis (setting [5]) is recorded as 2.1 ± 0.7. For the same molecule, the “effectiveness against apomorphine and cisplatin emesis (in words)” value in the data set on cisplatin-induced emesis is listed as “only effective against apomorphine emesis in dogs”.

As for `O=C1c2c([nH]c3c2CCC3)CCC1CN1CCC2(CC1)C(=O)NCN2C1CCCCC1` (stereo not shown) [Compound Ic, 8-[(1,2,3,4,5,6,7,8-octahydro-8-oxocyclopent[b]indol-7-yl)methyl]-1-cyclohexyl-1,3,8-triazaspiro[4.5]-decan-4-one], the 50% effective dose (ED50) was more than 100 mg/kg in data set [1] (setting [4]) and more than 100 mg/kg in data set [2] (po, 1 h). For the same molecule, the “Antagonism of Apomorphine Rearing % protected at 10 mg/kg” value in data set [1] (4 hr after administration) and in data set [1] (7 hr after administration) was 40% throughout. Further, at dopamine receptors, the half-maximal inhibitory concentration (IC50) amounted to 0.52 nM.

Regarding `CCc1c(C)[nH]c2c1C(=O)C(CN1CCC3(CC1)C(=O)NCN3C1CCCCC1)CC2` (stereo not shown) [Compound Ie], the 50% effective dose (ED50) in data set [1] (setting [4]) was determined as 98 mg/kg; in data set [2] (po, 1 h), 235 mg/kg. Also, the “Antagonism of Apomorphine Rearing % protected at 10 mg/kg” value is 62% in data set [1] (4 hr after administration) and 79% in data set [1] (7 hr after administration). Further, the IC50 on dopamine receptors stood at 0.082 nM.

With `CC1NC(=O)C2(CCN(CC3CCc4[nH]c5c(c4C3=O)CCC5)CC2)N1c1ccccc1` (stereo not shown) [Compound Ib, 8-[(1,2,3,4,5,6,7,8-octahydro-8-oxocyclopent[b]indol-7-yl)methyl]-2-methyl-1-phenyl-1,3,8-triazaspiro[4.5]-decan-4-one], the ED50 was more than 100 mg/kg in data set [1] (setting [4]) and more than 100 mg/kg in data set [2] (po, 1 h). The “Antagonism of Apomorphine Rearing % protected at 10 mg/kg” value in data set [1] (4 hr after administration) and in data set [1] (7 hr after administration) was 36% in each case. Besides, on dopamine receptors, the IC50 was determined as 0.94 nM.

In the case of `Cc1[nH]c2c(c1C)C(=O)C(CN1CCC3(CC1)C(=O)NCN3c1ccccc1)CC2` (stereo not shown) [Compound Id, 8-[4,5,6,7-tetrahydro-(2,3-dimethyl-4-oxo-1H-indol-5-yl)methyl]-1-phenyl-1,3,8-triazaspiro[4.5]decan-4-one], the ED50 in data set [1] (iv, 4 h, read-out: Antagonism of Apomorphine Rearing ED50) is 5.1 mg/kg; in data set [1] (setting [4]), 12 mg/kg; in data set [2] (iv, 4 h) it was more than 20 mg/kg; in data set [2] (po, 1 h), 147 mg/kg. The IC50 at dopamine receptors came out at 0.078 nM.

Regarding `O=C(CCCN1CCC(O)(c2ccc(Cl)cc2)CC1)c1ccc(F)cc1` [haloperidol, reference compound], the ED50 in data set [1] (setting [4]) is 0.18 mg/kg; in data set [2] (po, 1 h), 0.23 mg/kg.

Regarding `O=C1c2c([nH]c3c2CCC3)CCC1CN1CCC2(CC1)C(=O)NCN2c1ccccc1` (stereo not shown) [Compound If, 1,2,3,5,6,7-hexahydro-7-[(4-oxo-1-phenyl-1,3,8-triazaspiro[4.5]decan-8-yl)methyl]-4H-cyclopent[b]indol-8(8H)-one], the median effective dose (ED50) with apomorphine emesis is 0.75 mg/kg; in data set [1] (setting [4]) it was 12 mg/kg; in data set [2] (po, 1 h) it was more than 100 mg/kg. Besides, the IC50 on dopamine receptors amounted to 0.35 nM. Moreover, the “Vomiting episodes Mean (± S.E.) 6 Hrs” value with cisplatin-induced emesis (setting [5]) is given as 6.0 ± 1.8. Besides, the “Vomiting episodes Mean (± S.E.) 1 hr.” value in the data set on cisplatin-induced emesis (setting [5]) is listed as 1.0 ± 0.4. In the data set with cisplatin-induced emesis, the “effectiveness against apomorphine and cisplatin emesis (in words)” value is “effective against both apomorphine and cisplatin emesis in dogs”.

For `CCc1c(C)[nH]c2c1C(=O)C(CN1CCC3(CC1)C(=O)NCN3c1ccccc1)CC2` (stereo not shown) [Compound Ia, 8-[(3-ethyl-4,5,6,7-tetrahydro-2-methyl-4-oxo-1H-indol-5-yl)methyl]-1-phenyl-1,3,8-triazaspiro[4.5]-decan-4-one], the ED50 is 7 mg/kg in data set [1] (iv, 2 h, read-out: Antagonism of Apomorphine Rearing ED50); 2.3 mg/kg in data set [1] (iv, 7 h, read-out: Antagonism of Apomorphine Rearing ED50); more than 100 mg/kg in data set [1] (setting [4]); 15.9 mg/kg in data set [2] (iv, 2 h); 8.6 mg/kg in data set [2] (iv, 7 h); more than 100 mg/kg in data set [2] (po, 1 h). Besides, on dopamine receptors, the concentration for half-maximal inhibition (IC50) was determined as 0.095 nM. Further, the “grossly observable abnormal signs (behavior, motor coordination)” value in data set [3] is listed as “Neither dose level produced any grossly observable alteration in behavior or motor coordination nor were any other abnormal signs seen”.

Take `CN(C)CCCN1c2ccccc2Sc2ccc(Cl)cc21` [chloropromazine HCl, reference compound]: the median effective dose (ED50) was determined as 4.9 mg/kg in data set [1] (setting [4]) and 2.1 mg/kg in data set [2] (po, 1 h).
